# Results: ChEMBL document CHEMBL2331252, “Facile one-pot synthesis of novel dispirooxindole-pyrrolidine derivatives and their antimicrobial and anticancer activity against A549 human lung adenocarcinoma cancer cell line” (Bioorg Med Chem Lett, 2013)
# Active and inactive are the calls of the source. The rule behind the calls is not given here.
# Tests used:
# Type in all cases: functional
# [1] = test system: Staphylococcus aureus; experiment: Antibacterial activity against Staphylococcus aureus MTCC 96 at 1 mg/disc after 24 hrs by disc diffusion method
# [2] = test system: Salmonella typhimurium; experiment: Antibacterial activity against Salmonella typhimurium MTCC 1251 after 24 hrs
# [3] = test system: A549; experiment: Cytotoxicity against human A549 cells assessed as cell death at 200 ug/ml by MTT assay
# [4] = test system: Proteus vulgaris; experiment: Antibacterial activity against Proteus vulgaris MTCC 1771 at 1 mg/disc after 24 hrs by disc diffusion method
# [5] = test system: Candida albicans; experiment: Antifungal activity against Candida albicans MTCC 227 after 48 to 72 hrs
# [6] = test system: Shigella flexneri; experiment: Antibacterial activity against Shigella flexneri MTCC 1457 after 24 hrs; settings: MTCC 1457, 24 h
# [7] = Antifungal activity against Malassezia pachydermatis at 1 mg/disc after 48 hrs by disc diffusion method
# [8] = test system: Klebsiella pneumoniae; experiment: Antibacterial activity against Klebsiella pneumoniae MTCC 109 at 1 mg/disc after 24 hrs by disc diffusion method
# [9] = test system: Candida albicans; experiment: Antifungal activity against Candida albicans MTCC 227 at 1 mg/disc after 48 hrs by disc diffusion method
# [10] = test system: Micrococcus luteus; experiment: Antibacterial activity against Micrococcus luteus MTCC 106 after 24 hrs; settings: MTCC 106, 24 h
# [11] = test system: Klebsiella aerogenes; experiment: Antibacterial activity against Enterobacter aerogenes MTCC 111 at 1 mg/disc after 24 hrs by disc diffusion method
# [12] = test system: Klebsiella pneumoniae; experiment: Antibacterial activity against Klebsiella pneumoniae MTCC 109 after 24 hrs; settings: MTCC 109, 24 h
# [13] = test system: Staphylococcus aureus; experiment: Antibacterial activity against methicillin-resistant Staphylococcus aureus at 1 mg/disc after 24 hrs by disc diffusion method
# [14] = test system: Klebsiella aerogenes; experiment: Antibacterial activity against Enterobacter aerogenes MTCC 111 after 24 hrs
# [15] = test system: Staphylococcus aureus; experiment: Antibacterial activity against Staphylococcus aureus MTCC 96 after 24 hrs; settings: MTCC 96, 24 h
# [16] = test system: Shigella flexneri; experiment: Antibacterial activity against Shigella flexneri MTCC 1457 at 1 mg/disc after 24 hrs by disc diffusion method
# [17] = test system: Salmonella typhimurium; experiment: Antibacterial activity against Salmonella typhimurium MTCC 1251 at 1 mg/disc after 24 hrs by disc diffusion method; settings: for inhibition: Salmonella enterica subsp. enterica serovar Typhimurium
# [18] = test system: A549; experiment: Cytotoxicity against human A549 cells assessed as cell death at 100 ug/ml by MTT assay
# [19] = test system: Staphylococcus aureus; experiment: Antibacterial activity against methicillin-resistant Staphylococcus aureus after 24 hrs
# [20] = test system: A549; experiment: Cytotoxicity against human A549 cells assessed as cell death at 50 ug/ml by MTT assay
# [21] = test system: Proteus vulgaris; experiment: Antibacterial activity against Proteus vulgaris MTCC 1771 after 24 hrs
# [22] = test system: Micrococcus luteus; experiment: Antibacterial activity against Micrococcus luteus MTCC 106 at 1 mg/disc after 24 hrs by disc diffusion method
# [23] = Salmonella enterica, MTCC 1251, 24 h
Compound,inhibition zone (IZ) [1] [mm],Activity [3] [%],inhibition [4],MIC [5],MIC [6] [µg/mL],inhibition [7],inhibition zone (IZ) [8] [mm],inhibition zone (IZ) [9] [mm],MIC [10] [µg/mL],inhibition zone (IZ) [11] [mm],MIC [12] [µg/mL],inhibition zone (IZ) [13] [mm],"MIC ([14]; MTCC 111, 24 h) [µg/mL]",MIC [15] [µg/mL],inhibition zone (IZ) [16] [mm],Activity [18] [%],MIC [19] [µg/mL],Activity [20] [%],inhibition zone (IZ) [22] [mm],inhibition zone (IZ) [17] [mm],other results
CN1C[C@](C#N)(C(=O)c2c[nH]c3ccccc23)[C@]2(C(=O)Nc3ccccc32)[C@@]12C(=O)Nc1ccc(F)cc12,12,16.79,inactive,125 µg/mL,500,inactive,8,11,500,9,500,10,500,125,9,10.82,500,3.6,9,–,MIC ([2]; Salmonella enterica subsp. enterica serovar Typhimurium): inactive; inhibition [17]: inactive; MIC [21]: inactive
CN1C(=O)[C@@]2(c3cc([N+](=O)[O-])ccc31)N(C)C[C@](C#N)(C(=O)c1c[nH]c3ccccc13)[C@]21C(=O)Nc2ccccc21,–,60.22,inactive,–,–,–,–,9,–,–,–,–,–,–,–,24.36,–,9.27,7,8,inhibition [1]: inactive; inhibition zone (IZ) [7]: 12 mm; inhibition [8]: inactive; inhibition [11]: inactive; inhibition [13]: inactive; inhibition [16]: inactive
CN1C[C@](C#N)(C(=O)c2c[nH]c3ccccc23)[C@]2(C(=O)Nc3ccccc32)[C@@]12C(=O)Nc1ccc(Br)cc12,11,15.98,–,500 µg/mL,500,inactive,9,11,1000,10,500,9,–,500,10,9.34,500,3.43,9,15,"MIC [2, 23]: 125 µg/mL; inhibition zone (IZ) [4]: 12 mm; MIC [14]: inactive; MIC ([21]; MTCC 1771, 24 h): 250 µg/mL"
CN1C(=O)[C@@]2(c3cc(Br)ccc31)N(C)C[C@](C#N)(C(=O)c1c[nH]c3ccccc13)[C@]21C(=O)Nc2ccccc21,9,10.92,–,inactive,125,inactive,8,–,125,10,500,8,125,500,11,2.07,500,0.87,11,9,"MIC [2, 23]: 500 µg/mL; inhibition zone (IZ) [4]: 9 mm; inhibition [9]: inactive; MIC ([21]; MTCC 1771, 24 h): 500 µg/mL"
CCCCN1C(=O)[C@@]2(c3ccccc31)N(C)C[C@](C#N)(C(=O)c1c[nH]c3ccccc13)[C@]21C(=O)Nc2ccccc21,9,32.25,inactive,500 µg/mL,500,inactive,8,8,500,10,500,11,500,500,9,19.6,500,4.27,8,10,"MIC [2, 23]: 500 µg/mL; MIC [21]: inactive"
CN1C[C@](C#N)(C(=O)c2c[nH]c3ccccc23)[C@]2(C(=O)Nc3ccccc32)[C@@]12C(=O)N(c1ccccc1)c1ccccc12,7,47.89,inactive,–,–,–,9,13,–,–,–,–,–,–,–,41.58,–,39.41,–,–,inhibition zone (IZ) [7]: 14 mm; inhibition [11]: inactive; inhibition [13]: inactive; inhibition [16]: inactive; inhibition [17]: inactive; inhibition [22]: inactive
CN[C@@H]1[C@H](O[C@H]2[C@H](O[C@H]3[C@H](O)[C@@H](O)[C@H](N=C(N)N)[C@@H](O)[C@@H]3N=C(N)N)O[C@@H](C)[C@]2(O)C=O)O[C@@H](CO)[C@H](O)[C@H]1O [STREPTOMYCIN],14,–,–,–,6.25,–,20,–,6.25,22,6.25,30,25,6.25,30,–,6.25,–,26,18,"MIC [2, 23]: 30 µg/mL; inhibition zone (IZ) [4]: 30 mm; MIC [21]: inactive"
CC(=O)N1CCN(c2ccc(OCC3COC(Cn4ccnc4)(c4ccc(Cl)cc4Cl)O3)cc2)CC1 (centres undefined) [KETOCONAZOLE],–,–,–,25 µg/mL,–,–,–,28,–,–,–,–,–,–,–,–,–,–,–,–,inhibition zone (IZ) [7]: 26 mm
CN1C[C@](C#N)(C(=O)c2c[nH]c3ccccc23)[C@]2(C(=O)Nc3ccccc32)[C@@]12C(=O)Nc1ccc([N+](=O)[O-])cc12,–,55.26,inactive,–,–,inactive,–,9,–,8,–,–,–,–,–,36.65,–,18.37,–,8,inhibition [1]: inactive; inhibition [8]: inactive; inhibition [13]: inactive; inhibition [16]: inactive; inhibition [22]: inactive
CCOC(=O)CN1C(=O)[C@@]2(c3ccccc31)N(C)C[C@](C#N)(C(=O)c1c[nH]c3ccccc13)[C@]21C(=O)Nc2ccccc21,9,27.78,–,–,–,–,–,9,–,–,–,–,–,–,–,21.25,–,11.04,–,–,inhibition zone (IZ) [4]: 8 mm; inhibition zone (IZ) [7]: 11 mm; inhibition [8]: inactive; inhibition [11]: inactive; inhibition [13]: inactive; inhibition [16]: inactive; inhibition [17]: inactive; inhibition [22]: inactive
